From patent publication US11071790B2, “Method for efficient delivery of therapeutic molecules in vitro and in vivo” (Massachusetts Eye and Ear Infirmary, priority 2014, dated 2021)
No end group written: not given here.

Experiments:
[1] = tested on: glucocorticoid receptor (GR-mCherry) in HeLa cells; assay: GR-mCherry translocation assay; type: cell-based; conditions: 1 μM, 30 min
Procedure: One day prior to transfection 10,000 HeLa cells in 200 μL of DMEM (10% FBS, 1× Pen-Strep) were plated into single wells of a 96-well MATRICAL glass bottom microplate (MGB096-1-2-LG-L) and allowed to adhere overnight. The following day, cells were transfected with GRmCherry using LIPOFECTAMINE® 2000 technologies. Following transfection, cells were allowed to recover overnight in DMEM (+10% FBS). The following day, cells were treated with dexamethasone (Dex) or 1 μM Dex-protein conjugate in the presence or absence of inhibitor diluted into DMEM (without phenol red, +300 nM Hoescht33342). After 30 min, cells were washed twice with 200 μL of HEPES-Krebs-Ringer's (HKR) buffer (140 mM NaCl, 2 mM KCl, 1 mM CaCl2, 1 mM MgCl2, and 10 mM HEPES at pH 7.4), after which 100 μL of HKR buffer was overlaid onto the cells and images were acquired on a Zeiss Axiovert 200M epifluorescence microscope outfitted with Ziess AxiocammRM camera and an EXFO-Excite series 120 Hg arc lamp. The translocation ratio (the ratio of median […] intensity in the nuclear and surrounding regions) for individual cells was measured using CELLPROFILER® as described 36. […]
Although endosomal escape is widely considered to be the major bottleneck of cationic protein delivery (Sahay, G.; et al. Nature Biotechnology 2013, 31, 653), few assays quantify the ability of proteins to escape endosomes on a single-cell basis.

[2] = tested on: BSR.LNL.tdTomato cells; assay: Cre delivery assay of recombinant fusion proteins (flow cytometry); type: cell-based, hamster; conditions: 250 nM, fused to +36 GFP-Cre
Procedure: (§1) FIGS. 15A, 15B are graphs showing the efficacy and toxicity of recombinant expression fusions of aurein 1.2 (“E”) and citropin 1.3 (“U”). […] The percentage of tdTomato positive cells was determined by flow cytometry. Protein fusions were delivered at 125 nM, 250 nM, 500 nM, and 1 μM. […] Protein fusions were delivered at 125 nM, 250 nM, 500 nM, and 1 μM. […] Cells were treated with 250 nM protein for 4 h in serum-free media. Cells were washed and supplanted with full DMEM and incubated for 48 h. Error bars represent the standard deviation of three independent biological replicates.
The percentage of tdTomato positive cells was determined by flow cytometry. […] Cells were washed and supplanted with full DMEM and incubated for 48 h.
(§2) Uptake and delivery assays for Cre fusion proteins were performed as previously described (Cronican, J. J.; et al. ACS Chemical Biology 2010, 5, 747). Briefly, proteins were diluted in serum-free DMEM and incubated on the cells in 48-well plates for 4 h at 37° C. Following incubation, the cells were washed three times with PBS+20 U/mL heparin. The cells were incubated a further 48 h in serum-containing media prior to trypsinization and analysis by flow cytometry. […] Toxicity for alanine scan mutational analysis was determined with LIVE/DEAD fixable far-red dead cell stain (Life Technologies) with 635 nm laser and 670/30 nm filter.

[3] = tested on: cochlear hair cells of Rosa26-tdTomato mice; assay: in vivo delivery of Cre recombinase into mouse neonatal cochlea (tdTomato recombination)
Procedure: 0.4 μL of 50 μM+36 GFP-Cre or aurein 1.2-+36 GFP-Cre were injected into the scala media. […] Inner hair cells (IHC), outer hair cells (OHC) and supporting cells in the sensory epithelium (SE) were imaged for the presence of tdTomato, which is only expressed following Cre-mediated recombination. Hair cells were labeled with antibodies against the hair-cell marker Myo7a.
P1-2 Gt(ROSA)26Sor^tm14(CAG-tdTomato)Hze mice were used for aurein 1.2-+36-GFP-Cre and +36-GFP-Cre injection. The Rosa26-tdTomato mice were from the Jackson Laboratory. […] Mice were anesthetized by hypothermia on ice. Cochleostomies were performed by making an incision behind the ear to expose the cochlea. Glass micropipettes held by a micromanipulator were used to deliver the complex into the scala media, which allows access to inner ear hair cells. […]
To quantify the number of tdTomato positive cells after aurein 1.2-+36-GFP-Cre and +36-GFP-Cre, we counted the total number of inner and outer hair cells in a region spanning 100 μm in the apex, middle, and base turn of the cochlea.
Anesthetized postnatal day 2 (P2) mice were injected with 0.4 μL of 50 μM+36 GFP-Cre or aurein 1.2-+36 GFP-Cre solutions in the scala media to access the cochlear cells. […] Both the hair cells (Myo7a+) and supporting cells (Myo7a−) were evaluated for td Tomato signal.

[4] = tested on: cochlear hair cells and supporting cells of Rosa-tdTomato f/f mouse; assay: Cre delivery into Rosa-tdTomato mouse cochlea in vivo (tdT labeling); conditions: for tdT-labeled hair cells: near the injection site (base turn of cochlea)
Procedure: FIGS. 10A and 10B show the in vivo delivery of Cre recombinase to hair cells in the mouse inner ear. FIG. 10A: The scala media (cochlear duct) of P0 floxP-tdTomato mice (n=4) were injected with 0.3 μL of 23 μM (−30)GFP-Cre in 50% RNAiMAX or with RNAiMAX alone (control). […] Red=tdTomato; green=Myo7a; white=Sox2; blue=DAPI. Yellow brackets indicate the outer hair cell (OHC) region. […] Red=tdTomato; green=Esp, white=Sox2; blue=DAPI, Scale bars: 10 μm.
FIGS. 11A-11E show the high efficiency of protein delivery mediated by aurein in the inner ear in vivo. […] FIG. 11E: In Opti-MEM injected control mice no tdT labeling was detected in any inner ear cells. Scale bars: 10 μm.
The use of (−30)-GFP protein and a new positively charged (+36)-GFP protein to carry Cre, (−30)-GFP-Cre and (+36)-GFP-Cre, was tested for injection into mouse cochlea in vivo. The mouse used was Rosa-tdTomato^f/f in which functional Cre activity in the nuclei results in cells being labeled with tdT (red). It was shown that both (−30)-GFP-Cre and (+36)-GFP-Cre injections led to tdT expression in the cochlear hair cells.
It was next tested whether Aurein, an antimicrobial peptide, in combination with s-GFP, can serve as an effective carrier to deliver functional proteins into mouse inner ear cell types with high efficiency. (+36)-GFP-aurein-Cre was injected with different concentrations into P3 Rosa-tdT mouse inner ear by cochleostomy in vivo. The tissues were harvested 5 days later for immunolabeling to identify tdT^+ inner ear cell types. […] At 22.5 μM, 58% of OHC and 75% of IHC, as well as 8% of SC were tdT^+. At the highest 50 μM, 96% of OHC, 88% of IHC and 19% of SC were tdT^+. Some spiral ganglion neurons were also tdT^+ at 22.5 and 50 μM (FIGS. 11A-11E and FIG. 12).

[5] = tested on: BSR.LNL.tdTomato cells; assay: primary screen for cytosolic delivery of Cre recombinase (fluorescence image analysis); type: cell-based, hamster
Procedure: Initial screen of 20 peptide-(+36 GFP)-Cre conjugated proteins. Cytosolic Cre delivery results in recombination and tdTomato expression. The percentage of tdTomato positive cells was determined by fluorescence image analysis. […] Cells were washed and supplanted with full DMEM and incubated for 48 h. Error bars represent the standard deviation of three independent biological replicates.
BSR.LNL.tdTomato cells were plated at 10,000 cells per well in black 384-well plates (Aurora Biotechnologies). […] Following incubation, the cells were washed three times with PBS+20 U/mL heparin. The cells were incubated a further 48 h in serum-containing media. Cells were fixed in 3% paraformaldehyde and stained with Hoescht 33342 nuclear dye. Images were acquired on an ImageXpress Micro automated microscope (Molecular Devices) using a 4× objective (binning 2, gain 2), with laser- and image-based focusing (offset −130 μm, range ±50 μm, step 25 μm). Images were exposed for 10 ms in the DAPI channel (Hoechst) and 500 ms in the dsRed channel (tdTomato). Image analysis was performed using the cell-scoring module of MetaXpress software (Molecular Devices). All nuclei were detected with a minimum width of 1 pixel, maximum width of 3 pixels, and an intensity of 200 gray levels above background. […] In total, nine images were captured and analyzed per well, and 16 wells were treated with the same fusion protein. The primary screen was completed in biological triplicate.
Because Cre recombinase must enter the cell, escape endosomes, enter the nucleus, and catalyze recombination to generate tdTomato fluorescence, this assay reflects the availability of active, non-endosomal recombinase enzyme that reaches the nucleus.
The reporter BSR.LNL.tdTomato cells were incubated with 250 nM of each peptide-(+36 GFP)-Cre protein in serum-free media.

[6] = tested on: BSR.LNL.tdTomato cells; assay: ATP-dependent cell viability assay (CELLTITER-GLO); conditions: 1 μM, 48 h after treatment
Procedure: as §1, §2
Next, the toxicity of each fusion protein was evaluated at a range of concentrations (125 nM to 1 μM) using an ATP-dependent cell viability assay at 48 h after treatment.

Substance: Arg8^Dex: dexamethasone-labeled canonical cell permeable peptide Arg8, SEQ ID NO: 102 (RRRRRRRR; also: dexamethasone label, site not given here)
- nuclear-to-cytoplasm translocation ratio (TR) [1]: 1.63

Substance: GLFDIIKRIAESF [K8R]
- overall recombination efficiency of aurein 1.2 variants [2]: potentially improved overall recombination efficiency

Substance: GLFDIIKKIAESF (listed as Litoria aurea) [aurein 1.2]
- potency of Cre delivery into cochlear hair cells when fused with aurein 1.2 versus absence of the peptide ([3]; live mice): > 20 fold

Substance: (−30)-GFP-Cre: negatively supercharged GFP fused to Cre recombinase, SEQ ID NO: 4
- tdT-labeled hair cells [4]: ~30%
- stereocilia of tdTomato-positive outer hair cells ([4]; ten days after delivery, 23 μM in 50% RNAiMAX): intact espin (Esp)-expressing stereocilia of tdTomato-positive outer hair cells were present

Substance: GLFDIIKKIAEAF [S12A]
- overall recombination efficiency of aurein 1.2 variants [2]: potentially improved overall recombination efficiency

Substance: +36 GFP-Cre: superpositively charged GFP fused to Cre recombinase, SEQ ID NO: 1
- tdT labeling of cochlear cells ([4]; 50 μM): very few IHC and HC were labeled with tdT
- tdT-labeled hair cells [4]: ~30%
- recombined cells ([5]; 250 nM protein with 100 μM chloroquine (positive control)): 48%
- cells expressing tdTomato (recombined cells) ([5]; 250 nM protein, 4 h serum-free, 48 h): 4.5%
- viable cells [6]: 85%
- Cre-mediated recombination in inner hair cells (IHC) ([3]; apex, 50 μM): 4.4%

Substance: GLFDIIKKVASVIGGL [citropin 1.3]
- level of recombination in the primary screen ([5]; 250 nM sortase conjugate of +36 GFP-Cre): moderate level of recombination
